Assay results taken from PubChem BioAssay (NCI).
Several values for one entry are separate records, joined by “and”; a condition that tells them apart may be missing. Identical values can stand only once.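 These data come from cells grown in 96-well plates and exposed to compound for 48 hours at five concentrations. The concentration for 50% growth inhibition is given as GI50. The concentration for full growth arrest is given as TGI.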

Assays:
Experiment in all cases: growth of human tumour cells (NCI), 48 h
T-47D breast = tested on: T-47D breast
HS 578T breast = tested on: HS 578T breast
SK-MEL-5 melanoma = tested on: SK-MEL-5 melanoma
MDA-MB-435 = tested on: MDA-MB-435
MOLT-4 leukemia = tested on: MOLT-4 leukemia
A549 NSCLC = tested on: A549 NSCLC
NCI-H460 lung = tested on: NCI-H460 lung
NCI-H226 lung = tested on: NCI-H226 lung
OVCAR-8 ovarian = tested on: OVCAR-8 ovarian
ACHN renal = tested on: ACHN renal

NC(=S)N/N=C/c1ccc(O)cn1
TGI (T-47D breast): > 451 µM
TGI (HS 578T breast): > 1500 µM
GI50 (SK-MEL-5 melanoma): 11.3 µM and 8.06 µM
TGI (MDA-MB-435): > 1130 µM
GI50 (MOLT-4 leukemia): 6.5 µM and 3.19 µM and 1.36 µM
GI50 (A549 NSCLC): 33.2 µM and 41.1 µM
TGI (A549 NSCLC): > 1500 µM and 584 µM
GI50 (NCI-H460 lung): 29.1 µM
TGI (NCI-H460 lung): 595 µM
GI50 (NCI-H226 lung): 29.7 µM
TGI (NCI-H226 lung): 83.7 µM and 374 µM
GI50 (OVCAR-8 ovarian): 4.71 µM
TGI (OVCAR-8 ovarian): 72.3 µM and 161 µM and 393 µM
GI50 (ACHN renal): 4.14 µM
TGI (ACHN renal): 40.8 µM and 16.1 µM

COC(=O)[C@@]1(O)CC(C)C=C1C=O (some centres undefined)
TGI (SK-MEL-5 melanoma): > 100 µM
TGI (MOLT-4 leukemia): > 100 µM
TGI (A549 NSCLC): 60.9 µM
TGI (NCI-H460 lung): 42.1 µM
TGI (NCI-H226 lung): > 100 µM
TGI (OVCAR-8 ovarian): > 100 µM
TGI (ACHN renal): > 100 µM

O=C(NCCN1CCC(O)CC1)c1cc2c(o1)C(=O)c1ccccc1C2=O
GI50 (T-47D breast): 0.376 µM
TGI (T-47D breast): 1.85 µM
GI50 (HS 578T breast): 0.322 µM
TGI (HS 578T breast): 0.919 µM
GI50 (SK-MEL-5 melanoma): 0.141 µM
TGI (SK-MEL-5 melanoma): 0.275 µM
GI50 (MDA-MB-435): 0.177 µM
TGI (MDA-MB-435): 0.324 µM
GI50 (MOLT-4 leukemia): 0.383 µM
TGI (MOLT-4 leukemia): 1.74 µM
GI50 (A549 NSCLC): 0.213 µM
TGI (A549 NSCLC): 0.514 µM
GI50 (NCI-H460 lung): 0.192 µM
TGI (NCI-H460 lung): 0.39 µM
GI50 (NCI-H226 lung): 0.214 µM
TGI (NCI-H226 lung): 0.492 µM
GI50 (OVCAR-8 ovarian): 0.322 µM
TGI (OVCAR-8 ovarian): 1.41 µM

CC1(C)CCC[C@]2(C)c3cc(O)ccc3CC[C@@H]12
GI50 (HS 578T breast): 15.6 µM
TGI (HS 578T breast): 31.3 µM
GI50 (SK-MEL-5 melanoma): 11.3 µM
TGI (SK-MEL-5 melanoma): 23.4 µM
GI50 (MDA-MB-435): 6.65 µM
TGI (MDA-MB-435): 21 µM
GI50 (MOLT-4 leukemia): 11.7 µM
TGI (MOLT-4 leukemia): 67.3 µM
GI50 (A549 NSCLC): 19 µM
TGI (A549 NSCLC): 36.5 µM
GI50 (NCI-H460 lung): 18.6 µM
TGI (NCI-H460 lung): 40.9 µM
GI50 (NCI-H226 lung): 18.2 µM
TGI (NCI-H226 lung): 35.4 µM
GI50 (OVCAR-8 ovarian): 21.7 µM
TGI (OVCAR-8 ovarian): 41.1 µM
GI50 (ACHN renal): 18.1 µM
TGI (ACHN renal): 33.5 µM

N#C/C(=C\Nc1ccccn1)C(=O)c1ccco1
TGI (HS 578T breast): > 100 µM
TGI (SK-MEL-5 melanoma): > 100 µM
TGI (MDA-MB-435): > 100 µM
TGI (MOLT-4 leukemia): > 100 µM
TGI (A549 NSCLC): > 100 µM
TGI (NCI-H460 lung): > 100 µM
TGI (NCI-H226 lung): > 100 µM
TGI (OVCAR-8 ovarian): > 100 µM
TGI (ACHN renal): > 100 µM

CCCCCCCCC(O)C#CC(N)=O (centres undefined)
TGI (SK-MEL-5 melanoma): 24.3 µM
TGI (MOLT-4 leukemia): 66.1 µM
TGI (A549 NSCLC): 36.2 µM
TGI (NCI-H460 lung): 22 µM
TGI (NCI-H226 lung): 25.6 µM
TGI (OVCAR-8 ovarian): 21.4 µM
TGI (ACHN renal): 31 µM

O=C(O)c1ccc([S-])cc1.[Au+].c1ccc(CN2[CH-]N(Cc3ccccc3)C(c3ccccc3)=C2c2ccccc2)cc1
GI50 (T-47D breast): 0.312 µM
TGI (T-47D breast): 1.53 µM
GI50 (HS 578T breast): 0.459 µM
TGI (HS 578T breast): 2.84 µM
GI50 (SK-MEL-5 melanoma): 0.281 µM
TGI (SK-MEL-5 melanoma): 1.03 µM
GI50 (MDA-MB-435): 0.417 µM
TGI (MDA-MB-435): 1.46 µM
GI50 (A549 NSCLC): 0.358 µM
TGI (A549 NSCLC): 1.63 µM
GI50 (NCI-H460 lung): 0.328 µM
TGI (NCI-H460 lung): 1.28 µM
GI50 (OVCAR-8 ovarian): 0.417 µM
TGI (OVCAR-8 ovarian): 1.66 µM
GI50 (ACHN renal): 0.332 µM
TGI (ACHN renal): 1.28 µM

C[C@]1(C(=O)O)N[C@H](C(=O)O)CS1
GI50 (T-47D breast): > 1000 µM
TGI (T-47D breast): > 1000 µM
GI50 (SK-MEL-5 melanoma): 1.48 µM
TGI (SK-MEL-5 melanoma): 270 µM
GI50 (MDA-MB-435): > 1000 µM
TGI (MDA-MB-435): > 1000 µM
GI50 (A549 NSCLC): > 1000 µM
TGI (A549 NSCLC): > 1000 µM
GI50 (NCI-H460 lung): > 1000 µM
TGI (NCI-H460 lung): > 1000 µM
GI50 (NCI-H226 lung): > 1000 µM
TGI (NCI-H226 lung): > 1000 µM
GI50 (OVCAR-8 ovarian): > 1000 µM
TGI (OVCAR-8 ovarian): > 1000 µM
GI50 (ACHN renal): > 1000 µM
TGI (ACHN renal): > 1000 µM

COc1cc(C=O)c(-c2cc3c(cc2C2(C)OCCS2)OCO3)c(OC)c1OC (centres undefined)
TGI (SK-MEL-5 melanoma): 35.3 µM
TGI (MOLT-4 leukemia): > 239 µM
TGI (A549 NSCLC): > 97 µM
TGI (NCI-H460 lung): > 75.6 µM
TGI (NCI-H226 lung): 29.5 µM
TGI (OVCAR-8 ovarian): > 75.1 µM
TGI (ACHN renal): > 99.1 µM

COc1ccc2c(c1)CCc1[nH]nc(-c3cc(OC)c(OC)c(OC)c3)c1-2
GI50 (T-47D breast): 3.59 µM
TGI (T-47D breast): 21.3 µM
GI50 (HS 578T breast): < 0.01 µM
TGI (HS 578T breast): 22.3 µM
GI50 (SK-MEL-5 melanoma): < 0.01 µM
TGI (SK-MEL-5 melanoma): < 0.01 µM
GI50 (MDA-MB-435): < 0.01 µM
TGI (MDA-MB-435): < 0.01 µM
GI50 (MOLT-4 leukemia): < 0.01 µM
TGI (MOLT-4 leukemia): > 100 µM
GI50 (A549 NSCLC): < 0.01 µM
TGI (A549 NSCLC): 19.5 µM
GI50 (NCI-H460 lung): < 0.01 µM
TGI (NCI-H460 lung): 2.06 µM
GI50 (OVCAR-8 ovarian): < 0.01 µM
TGI (OVCAR-8 ovarian): 15.4 µM
GI50 (ACHN renal): < 0.01 µM
TGI (ACHN renal): 21.7 µM

O=C(Nc1ccc2[nH]c(C(=O)N3CC(CCl)c4c3cc([N+](=O)[O-])c3ccccc43)cc2c1)c1cc2ccccc2o1 (centres undefined)
GI50 (T-47D breast): > 1100 µM
TGI (T-47D breast): > 1100 µM
GI50 (HS 578T breast): > 1100 µM
TGI (HS 578T breast): > 1100 µM
GI50 (SK-MEL-5 melanoma): > 1100 µM
TGI (SK-MEL-5 melanoma): > 1100 µM
GI50 (MDA-MB-435): > 1100 µM
TGI (MDA-MB-435): > 1100 µM
GI50 (MOLT-4 leukemia): 180 µM
TGI (MOLT-4 leukemia): > 1100 µM
GI50 (A549 NSCLC): > 1100 µM
TGI (A549 NSCLC): > 1100 µM
GI50 (NCI-H460 lung): 21 µM
TGI (NCI-H460 lung): > 1100 µM
GI50 (NCI-H226 lung): > 1100 µM
TGI (NCI-H226 lung): > 1100 µM
GI50 (OVCAR-8 ovarian): > 1100 µM
TGI (OVCAR-8 ovarian): > 1100 µM

COc1cc([C@H]2c3cc4c(cc3[C@H](NCc3ccc([N+](=O)[O-])cc3)C3COC(=O)[C@H]32)OCO4)cc(OC)c1O (some centres undefined)
TGI (SK-MEL-5 melanoma): 6.61 µM
TGI (MOLT-4 leukemia): > 100 µM
TGI (A549 NSCLC): 2.23 µM
TGI (NCI-H460 lung): 2.18 µM
TGI (NCI-H226 lung): 1.68 µM
TGI (OVCAR-8 ovarian): 7.62 µM
TGI (ACHN renal): 2.32 µM

c1ccc(Nn2c(CCCCCCCCc3nnc(COc4ccccc4)n3Nc3ccccc3)nnc2COc2ccccc2)cc1
GI50 (T-47D breast): 12.3 µM and 7.31 µM
TGI (T-47D breast): > 300 µM
GI50 (HS 578T breast): 35.5 µM
TGI (HS 578T breast): > 300 µM
GI50 (SK-MEL-5 melanoma): 6.41 µM and 50 µM
TGI (SK-MEL-5 melanoma): > 300 µM
GI50 (MDA-MB-435): 5.34 µM and 11.9 µM
TGI (MDA-MB-435): > 300 µM
GI50 (MOLT-4 leukemia): 14.5 µM
TGI (MOLT-4 leukemia): > 300 µM
GI50 (NCI-H460 lung): 6.34 µM and 12.9 µM
TGI (NCI-H460 lung): > 300 µM
GI50 (NCI-H226 lung): 15.6 µM and 70.9 µM
TGI (NCI-H226 lung): > 300 µM
GI50 (OVCAR-8 ovarian): 40 µM and 23.9 µM
TGI (OVCAR-8 ovarian): > 300 µM
GI50 (ACHN renal): 2.89 µM and 5.83 µM
TGI (ACHN renal): > 300 µM

O=C(NC12CC3CC(CC(C3)C1)C2)C(=O)c1c[nH]c2ccc([N+](=O)[O-])cc12
TGI (SK-MEL-5 melanoma): > 100 µM
TGI (MOLT-4 leukemia): > 100 µM
TGI (A549 NSCLC): > 41.1 µM
TGI (NCI-H460 lung): > 72.3 µM
TGI (NCI-H226 lung): 63.6 µM
TGI (OVCAR-8 ovarian): > 100 µM
TGI (ACHN renal): > 100 µM

CCCCN=C(NC#N)N(Cc1ccccc1)Cc1ccccc1
TGI (SK-MEL-5 melanoma): 26.1 µM
TGI (MOLT-4 leukemia): 48.5 µM
TGI (A549 NSCLC): > 100 µM
TGI (NCI-H460 lung): > 100 µM
TGI (NCI-H226 lung): > 100 µM
TGI (OVCAR-8 ovarian): > 100 µM
TGI (ACHN renal): 98.8 µM

Nc1nc(NC2C=C(CO)C(O)C2O)c([N+](=O)[O-])c(=O)[nH]1 (centres undefined)
TGI (SK-MEL-5 melanoma): > 100 µM
TGI (MOLT-4 leukemia): > 100 µM
TGI (A549 NSCLC): > 100 µM
TGI (NCI-H460 lung): > 100 µM
TGI (NCI-H226 lung): > 100 µM
TGI (OVCAR-8 ovarian): > 100 µM
TGI (ACHN renal): > 100 µM

O=c1cc(-c2ccccc2)[nH]c2c(Cl)cccc12
TGI (SK-MEL-5 melanoma): 45.4 µM
TGI (MOLT-4 leukemia): > 100 µM
TGI (A549 NSCLC): > 100 µM
TGI (NCI-H460 lung): > 100 µM
TGI (NCI-H226 lung): 81 µM
TGI (OVCAR-8 ovarian): > 100 µM
TGI (ACHN renal): > 100 µM

CCC(=O)C(C)C(=O)C(=O)C(=O)OC (centres undefined)
TGI (SK-MEL-5 melanoma): > 100 µM
TGI (MOLT-4 leukemia): > 91.5 µM
TGI (A549 NSCLC): > 100 µM
TGI (NCI-H460 lung): > 100 µM
TGI (NCI-H226 lung): > 100 µM
TGI (OVCAR-8 ovarian): > 100 µM
TGI (ACHN renal): > 100 µM
